Measured values as given in ChEMBL document CHEMBL1201862, “PubChem BioAssay data set” (2004).
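96-well plates; 48 h exposure; 5 concentrations. Endpoints by linear interpolation between flanking doses. Not reached: highest tested concentration assigned. GI50 marks 50% less growth.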 The source made the active and inactive calls. No stated cut-off is given here; in the data, active = GI50 up to about 1.1 µM and inactive = higher.

What was measured:
Assay in all cases: NCI tumour cell line growth inhibition, 48 h
OVCAR-5 = system: OVCAR-5
HT-29 = system: HT-29
HCT-116 = system: HCT-116
HCC 2998 = system: HCC 2998
KM-20L2 = system: KM-20L2
UO-31 = system: UO-31
SF-295 = system: SF-295
NCI-H23 = system: NCI-H23
HCT-15 = system: HCT-15
COLO 205 = system: COLO 205
RXF 393 = system: RXF 393
SNB-78 = system: SNB-78
UACC-257 = system: UACC-257
NCI/ADR-RES = system: NCI/ADR-RES
UACC-62 = system: UACC-62
SK-MEL-2 = system: SK-MEL-2
LOX IMVI = system: LOX IMVI
A498 = system: A498
IGROV-1 = system: IGROV-1
SNB-75 = system: SNB-75
RPMI-8226 = system: RPMI-8226
OVCAR-3 = system: OVCAR-3
XF498 = system: XF498
HOP-18 = system: HOP-18
SNB-19 = system: SNB-19
U-251 = system: U-251
SK-OV-3 = system: SK-OV-3
KM12 = system: KM12
SK-MEL-28 = system: SK-MEL-28
K562 = system: K562
NCI-H460 = system: NCI-H460
SF-539 = system: SF-539
EKVX = system: EKVX
OVCAR-8 = system: OVCAR-8
HOP-92 = system: HOP-92
DLD-1 = system: DLD-1
SN12C = system: SN12C
SK-MEL-5 = system: SK-MEL-5
DMS-273 = system: DMS-273
CCRF-CEM = system: CCRF-CEM
MOLT-4 = system: MOLT-4
SF-268 = system: SF-268
Malme-3M = system: Malme-3M
SW-620 = system: SW-620
OVCAR-4 = system: OVCAR-4
NCI-H226 = system: NCI-H226
A549 = system: A549
MCF7 = system: MCF7
HL-60 = system: HL-60
NCI-H522 = system: NCI-H522
HOP-62 = system: HOP-62
M19-MEL = system: M19-MEL
DMS-114 = system: DMS-114
TK-10 = system: TK-10
786-0 = system: 786-0
LXFL 529 = system: LXFL 529
SR = system: SR
ACHN = system: ACHN
CAKI-1 = system: CAKI-1
M14 = system: M14

Measured: GI50

O=S(=O)(O)c1cc2ccc1/C=C\c1ccc(cc1S(=O)(=O)O)/N=N\c1ccc(c(S(=O)(=O)O)c1)/C=C\c1ccc(cc1S(=O)(=O)O)/N=N\2
> 100 µM: HCT-15
inactive: OVCAR-5 > 100 µM | HT-29 > 100 µM | HCT-116 > 100 µM | HCC 2998 > 100 µM | KM-20L2 > 100 µM | UO-31 > 100 µM | SF-295 > 100 µM | NCI-H23 > 100 µM | COLO 205 > 100 µM | RXF 393 > 100 µM | SNB-78 > 100 µM | UACC-257 > 100 µM | NCI/ADR-RES > 100 µM | UACC-62 > 100 µM | SK-MEL-2 > 100 µM | LOX IMVI > 100 µM | A498 > 100 µM | IGROV-1 > 100 µM | SNB-75 > 100 µM | RPMI-8226 > 100 µM | OVCAR-3 > 100 µM | XF498 > 88.3 µM | HOP-18 > 100 µM | SNB-19 > 100 µM | U-251 > 100 µM | SK-OV-3 > 100 µM | KM12 > 100 µM | SK-MEL-28 > 100 µM | K562 > 100 µM | NCI-H460 > 100 µM | SF-539 > 100 µM | EKVX > 100 µM | OVCAR-8 > 100 µM | HOP-92 > 100 µM | DLD-1 > 100 µM | SN12C > 100 µM | SK-MEL-5 > 100 µM | DMS-273 > 100 µM | CCRF-CEM > 100 µM | MOLT-4 > 100 µM | SF-268 > 100 µM | Malme-3M > 100 µM | SW-620 > 100 µM | OVCAR-4 > 86.1 µM | NCI-H226 > 100 µM | A549 > 100 µM | MCF7 > 100 µM | HL-60 > 100 µM | NCI-H522 > 100 µM | HOP-62 > 100 µM | M19-MEL > 100 µM

CC1=C2C(=O)C3[C@@H](CCC4=CC(=O)CC[C@@]43C)C2CC[C@]12O[C@@H]1C[C@H](C)CN[C@H]1[C@H]2C (stereo partly drawn)
inactive: HT-29 39.8 µM | HCT-116 30.6 µM | HCC 2998 > 100 µM | KM-20L2 68.4 µM | UO-31 63.7 µM | SF-295 32.8 µM | NCI-H23 37.6 µM | COLO 205 73.6 µM | RXF 393 38.5 µM | DMS-114 15.3 µM | TK-10 29.2 µM | UACC-257 36 µM | UACC-62 23.4 µM | SK-MEL-2 21.1 µM | LOX IMVI 29.6 µM | A498 32.3 µM | 786-0 43.4 µM | IGROV-1 > 100 µM | SNB-75 72.8 µM | RPMI-8226 20.7 µM | OVCAR-3 45.8 µM | XF498 12.6 µM | HOP-18 49.3 µM | SNB-19 44.4 µM | U-251 21.4 µM | SK-OV-3 > 100 µM | KM12 30.1 µM | LXFL 529 34.5 µM | SK-MEL-28 97.1 µM | K562 17.4 µM | NCI-H460 33.5 µM | SF-539 45.4 µM | EKVX 49 µM | SR 17.1 µM | OVCAR-8 40.7 µM | HOP-92 48.2 µM | DLD-1 > 100 µM | SN12C 36.3 µM | SK-MEL-5 42.1 µM | DMS-273 17.7 µM | CCRF-CEM 15.9 µM | MOLT-4 19.9 µM | SF-268 31.6 µM | SW-620 57.9 µM | ACHN 31.4 µM | OVCAR-4 > 100 µM | NCI-H226 70.5 µM | CAKI-1 > 100 µM | A549 28 µM | M14 59 µM | HL-60 12.3 µM | NCI-H522 21 µM | HOP-62 16.9 µM | M19-MEL 36.2 µM
48.8 µM: HCT-15

[O-][S+](Cc1cnc2ccccc2c1)c1nc2ccccc2nc1-c1cccs1 (stereo not drawn)
inactive: OVCAR-5 13.5 µM | HT-29 16.6 µM | HCT-116 10.6 µM | UO-31 14.8 µM | SF-295 25.5 µM | NCI-H23 14.9 µM | COLO 205 19.5 µM | SNB-78 20.3 µM | DMS-114 10.5 µM | UACC-257 16 µM | 786-0 13.2 µM | IGROV-1 16.8 µM | SNB-75 19.1 µM | RPMI-8226 25.4 µM | OVCAR-3 19.7 µM | XF498 4.06 µM | HOP-18 17.5 µM | SNB-19 22.4 µM | U-251 18.7 µM | SK-OV-3 29.2 µM | LXFL 529 8.55 µM | SK-MEL-28 16.9 µM | K562 7.46 µM | SF-539 17.9 µM | EKVX 6.31 µM | OVCAR-8 17.5 µM | HOP-92 11.2 µM | SN12C 14.5 µM | DMS-273 13.7 µM | CCRF-CEM 5.08 µM | MOLT-4 4.94 µM | SF-268 16.1 µM | Malme-3M 19.2 µM | ACHN 13.6 µM | OVCAR-4 10.5 µM | A549 19.7 µM | M14 15.1 µM | HL-60 4.31 µM
active: NCI-H226 0.43 µM

[O-][S+](Cc1ccccn1)c1nc2ccccc2nc1-c1ccccc1 (stereo not drawn)
inactive: HT-29 44.4 µM | HCT-116 33.4 µM | UO-31 37.7 µM | SF-295 27.9 µM | NCI-H23 34.8 µM | COLO 205 18.8 µM | SNB-78 21.2 µM | DMS-114 28.2 µM | UACC-257 33.1 µM | 786-0 47.2 µM | IGROV-1 36 µM | SNB-75 26.3 µM | RPMI-8226 19.9 µM | OVCAR-3 44.9 µM | XF498 17.5 µM | HOP-18 80.4 µM | SNB-19 62.4 µM | U-251 41.5 µM | SK-OV-3 55.7 µM | LXFL 529 31.9 µM | SK-MEL-28 53.8 µM | K562 31.3 µM | EKVX 30.7 µM | OVCAR-8 26.5 µM | HOP-92 28.3 µM | SN12C 35.3 µM | DMS-273 26.1 µM | CCRF-CEM 38.6 µM | MOLT-4 38.3 µM | SF-268 66.1 µM | Malme-3M 33.1 µM | ACHN 48.1 µM | OVCAR-4 26.9 µM | NCI-H226 18.9 µM | A549 47.2 µM | M14 36 µM | HL-60 20.8 µM
